Data reported in the NIST ThermoML archive (doi:10.1016/j.jct.2018.12.013).

Conditions: Liquid, Gas chromatography

C=CC(=C)CCC=C(C)C [2-methyl-6-methylene-2,7-octadiene]
Conditions | vapor or sublimation pressure [kPa]
287.7 K | 0.1
297.15 K | 0.21
298.15 K | 0.22
313.2 K | 0.57
320.4 K | 0.87
323.2 K | 1
328.2 K | 1.3
330 K | 1.5
333.3 K | 1.8
338.2 K | 2.3
340.2 K | 2.5
343.5 K | 2.9
348.2 K | 3.7
353.2 K | 4.6
353.4 K | 4.6
355.8 K | 5.2
358.2 K | 5.7
360 K | 6.2
363.3 K | 7.1
365.8 K | 7.9
366.2 K | 8
370 K | 9.4
371.9 K | 10
379.2 K | 13
385 K | 17
390 K | 20
399.2 K | 27
410 K | 38
418.2 K | 49
421.5 K | 54
428.2 K | 65
433.5 K | 76
439.1 K | 90
444.7 K | 101

CC1(C)C2=CCCC(C)(C)[C@]23CC[C@H]1C3 [(-)-isolongifolene]
Conditions | vapor or sublimation pressure [kPa]
298.15 K | 0.0043
310 K | 0.011
320 K | 0.023
330 K | 0.046
340 K | 0.086
350 K | 0.16
360 K | 0.27
370 K | 0.46
378.2 K | 0.69
380.2 K | 0.76
386.2 K | 1
388.2 K | 1.1
392.2 K | 1.3
393.2 K | 1.4
395 K | 1.5
400 K | 1.8
410 K | 2.8
419.2 K | 4
424.2 K | 4.8
430 K | 6
440 K | 8.5
450 K | 11.8
460 K | 16
470 K | 22
480 K | 29
490 K | 38
500 K | 50
510 K | 63.88
520 K | 81
527 K | 95.41
528.2 K | 100
529.6 K | 101
